Assay results taken from patent US10065990B2, “Cyclic peptide compound, and preparation method, pharmaceutical composition and use thereof” (HANGZHOU GUANYU BIO-MEDICAL CO., LTD, priority 2013, dated 2018).
Read-outs that look alike come from different tables or passages of the source.

Columns and labels:
[1] = test system: U937 (human leukemia cells); experiment: MTT cancer cell growth inhibition; type: cell-based; settings: Homo sapiens, U-937, 72 h, MTT, 72 hours incubation, read-out: GI50 U93
From the text: (§1) MTT assay principle is yellow MTT can penetrate membrane into the cell, succinic dehydrogenase of the mitochondria in living cells can make exogenous MTT reduction of insoluble in water of blue-violet acicular formazan for crystallization and deposition in the cell, crystallization can be dissolved dimethyl sulfoxide (DMSO) solution, detected its absorbance at 490 nm/570 nm wavelength by enzyme-linked immunosorbent assay, which can reflect the number of cells.
(§2) Using DMEM+10% FBS culture medium or using 1640+10% FBS culture, respectively.
(§3) a) Cells were seeded in 96-well plates with the inoculation of 1500/well, 190 μl/hole, 37° C., 5% of CO2 incubator overnight;
(§4) b) The next day each well was added 10 μl of different drugs. The final concentration of drug was 10^−5˜10^−10M, three parallel holes; 37° C., 5% CO2 culture incubator for 72 hours incubation;
(§5) c) Per well was added 20 μl 5 mg/ml of MTT, 37° C., 5% CO2 culture incubator for 4 hours incubation;
(§6) d) The supernatant was discarded. Each well was added 100 μl of DMSO and oscillation;
(§7) e) 570 nm readings. Calculate cell viability. GI50 calculation based on the results.

[2] = test system: MDA-MB-231 (breast cancer cells); experiment: MTT cancer cell growth inhibition; type: cell-based; settings: Homo sapiens, MDA-MB-231, 72 h, read-out: GI50 MDA-MB-231, MTT, 72 hours incubation, MDA-MB-231 cells
From the text: as §1, §2, §3, §4, §5, §6, §7

[3] = test system: DU145 (human prostate cancer cells); experiment: MTT cancer cell growth inhibition; type: cell-based; settings: Homo sapiens, DU-145, 72 h, MTT, 72 hours incubation, read-out: GI50 Du1
From the text: as §1, §2, §3, §4, §5, §6, §7

[4] = test system: MCF-7 (human breast cancer cells); experiment: MTT cancer cell growth inhibition; type: cell-based; settings: Homo sapiens, MCF7, 72 h, 72 hours incubation, read-out: GI50 MCF
From the text: as §1, §2, §3, §4, §5, §6, §7

[5] = test system: MOLT-4 (human acute lymphoblastic leukemia cells); experiment: MTT cancer cell growth inhibition; type: cell-based; settings: Homo sapiens, MOLT-4, 72 h, MTT, 72 hours incubation, read-out: GI50 Mol
From the text: as §1, §2, §3, §4, §5, §6, §7

[6] = test system: lncap (prostate cancer cells); experiment: MTT cancer cell growth inhibition; type: cell-based; settings: Homo sapiens, LNCaP, 72 h, MTT, 72 hours incubation, read-out: GI50 lnca
From the text: as §1, §2, §3, §4, §5, §6, §7

[7] = test system: KBM-5 (human chronic myelogenous leukemia); experiment: MTT cancer cell growth inhibition; type: cell-based; settings: Homo sapiens, KBM5, 72 h, MTT, 72 hours incubation, KBM-5 cells; read-out: GI50 KBM-5
From the text: as §1, §2, §3, §4, §5, §6, §7

[8] = test system: Bel-7402 (human hepatoma cells); experiment: MTT cancer cell growth inhibition; type: cell-based; settings: Homo sapiens, Bel-7402, 72 h, MTT, 72 hours incubation, Bel-7402 cells; read-out: GI50 Bel-7402
From the text: as §1, §2, §3, §4, §5, §6, §7

[9] = test system: N-87 (human gastric cancer cells); experiment: MTT cancer cell growth inhibition; type: cell-based; settings: Homo sapiens, 72 h, MTT, 72 hours incubation, N-87 cells; read-out: GI50 N-87
From the text: as §1, §2, §3, §4, §5, §6, §7

[10] = test system: H1975 (non-small cell lung adenocarcinoma); experiment: MTT cancer cell growth inhibition; type: cell-based; settings: Homo sapiens, NCI-H1975, 72 h, MTT, 72 hours incubation, H1975 cells; read-out: GI50 H1975
From the text: as §1, §2, §3, §4, §5, §6, §7

[11] = test system: HT1080 (human fibrosarcoma cells); experiment: MTT cancer cell growth inhibition; type: cell-based; settings: Homo sapiens, HT-1080, 72 h, MTT, 72 hours incubation, read-out: GI50 HT1
From the text: as §1, §2, §3, §4, §5, §6, §7

[12] = test system: HCC827 (human non-small cell lung cancer cells); experiment: MTT cancer cell growth inhibition; type: cell-based; settings: Homo sapiens, HCC827, 72 h, MTT, 72 hours incubation, HCC827 cells; read-out: GI50 HCC827
From the text: as §1, §2, §3, §4, §5, §6, §7

[13] = test system: PANC-1 (Pac-1, human pancreatic cancer cells); experiment: MTT cancer cell growth inhibition; type: cell-based; settings: Homo sapiens, PANC-1, 72 h, MTT, 72 hours incubation, read-out: GI50 PAN
From the text: as §1, §2, §3, §4, §5, §6, §7

[14] = test system: K562 (human leukemia cells); experiment: MTT cancer cell growth inhibition; type: cell-based; settings: Homo sapiens, K562, 72 h, MTT, 72 hours incubation, K562 cells; read-out: GI50 K562
From the text: as §1, §2, §3, §4, §5, §6, §7

[15] = test system: Hela (human cervical cancer cells); experiment: MTT cancer cell growth inhibition; type: cell-based; settings: Homo sapiens, HeLa, 72 h, MTT, 72 hours incubation, read-out: GI50 Hela
From the text: as §1, §2, §3, §4, §5, §6, §7

[16] = test system: A549 (human lung cancer cells); experiment: MTT cancer cell growth inhibition; type: cell-based; settings: Homo sapiens, A549, 72 h, MTT, 72 hours incubation, read-out: GI50 A54
From the text: as §1, §2, §3, §4, §5, §6, §7

[17] = test system: BGC-823 (human gastric cancer cells); experiment: MTT cancer cell growth inhibition; type: cell-based; settings: Homo sapiens, BGC-823, 72 h, MTT, 72 hours incubation, read-out: GI50 BG
From the text: as §1, §2, §3, §4, §5, §6, §7

[18] = test system: SGC-7901 (human gastric cancer cells); experiment: MTT cancer cell growth inhibition; type: cell-based; settings: Homo sapiens, SGC-7901, 72 h, MTT, 72 hours incubation, SGC-7901 cells; read-out: GI50 SGC-7901
From the text: as §1, §2, §3, §4, §5, §6, §7

[19] = test system: Huh-7 (human hepatoma cells); experiment: MTT cancer cell growth inhibition; type: cell-based; settings: Homo sapiens, Huh-7, 72 h, MTT, 72 hours incubation, Huh-7 cells; read-out: GI50 Huh-7
From the text: as §1, §2, §3, §4, §5, §6, §7

[20] = test system: KBM5-T315I (human chronic myelogenous leukemia); experiment: MTT cancer cell growth inhibition; type: cell-based; settings: Homo sapiens, 72 h, MTT, 72 hours incubation, KBM5-T315I cells; read-out: GI50 KBM5-T315I
From the text: as §1, §2, §3, §4, §5, §6, §7

HDAC7 = biological target: T1, HDAC7 (Homo sapiens, UniProt Q8WUI4); experiment: HDAC biochemical activity measurement (fluorescent substrate deacetylation);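 also: fluorogenic deacetylation assay using acetyl-lysine substrate at 20 µM, enzyme and compound incubated 30 min at 37 °C, then developer added, fluorescence read at 360/460 nm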; settings: HDAC7; 37° C. 30 minutes
T1 sequence (Q8WUI4 1-952): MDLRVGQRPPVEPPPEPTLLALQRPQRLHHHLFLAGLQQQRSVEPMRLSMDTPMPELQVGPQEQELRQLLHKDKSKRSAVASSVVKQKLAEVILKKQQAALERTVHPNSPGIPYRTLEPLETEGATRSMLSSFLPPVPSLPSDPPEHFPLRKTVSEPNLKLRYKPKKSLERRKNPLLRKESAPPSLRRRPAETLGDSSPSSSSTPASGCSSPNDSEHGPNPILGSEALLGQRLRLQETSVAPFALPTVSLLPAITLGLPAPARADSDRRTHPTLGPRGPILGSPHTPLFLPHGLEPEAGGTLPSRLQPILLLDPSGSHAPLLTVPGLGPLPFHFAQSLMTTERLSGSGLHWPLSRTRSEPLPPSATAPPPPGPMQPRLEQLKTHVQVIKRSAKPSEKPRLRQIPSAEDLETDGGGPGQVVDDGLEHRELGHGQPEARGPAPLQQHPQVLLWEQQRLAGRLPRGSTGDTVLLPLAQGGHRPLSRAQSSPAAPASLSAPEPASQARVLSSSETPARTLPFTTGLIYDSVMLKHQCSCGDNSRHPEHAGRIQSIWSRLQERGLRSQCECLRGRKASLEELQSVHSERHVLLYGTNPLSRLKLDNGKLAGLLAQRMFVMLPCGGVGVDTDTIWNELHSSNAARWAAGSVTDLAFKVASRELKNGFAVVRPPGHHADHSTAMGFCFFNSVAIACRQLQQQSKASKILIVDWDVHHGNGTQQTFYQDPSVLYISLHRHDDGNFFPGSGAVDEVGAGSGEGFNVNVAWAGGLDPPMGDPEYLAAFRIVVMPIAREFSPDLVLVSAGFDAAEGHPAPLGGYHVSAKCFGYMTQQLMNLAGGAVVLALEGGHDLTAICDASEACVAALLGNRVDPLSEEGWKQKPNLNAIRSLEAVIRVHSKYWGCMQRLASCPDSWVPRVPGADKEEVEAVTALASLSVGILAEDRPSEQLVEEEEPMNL

Row | SMILES | GI50 [1] [nM] | GI50 [2] [nM] | GI50 [3] [nM] | GI50 [4] [nM] | GI50 [5] [nM] | GI50 [6] [nM] | GI50 [7] [nM] | GI50 [8] [nM] | GI50 [9] [nM] | GI50 [10] [nM] | GI50 [11] [nM] | GI50 [12] [nM] | GI50 [13] [nM] | GI50 [14] [nM] | GI50 [15] [nM] | GI50 [16] [nM] | GI50 [18] [nM] | GI50 [19] [nM] | GI50 [20] [nM] | IC50 HDAC7 (HDAC7) | other results
1 | C/C=C1\NC(=O)c2ccc(F)c(n2)CCNC(=O)C[C@@H](/C=C/CCSC(C)=O)OC(=O)[C@H](C(C)C)NC1=O [Compound 105] | 50 | 86 | 30 | 20 | 20 | 20 | 23 | 21 | 93 | 97 | 70 | 47 | 70 | 19 | 50 | 40 | 16 | 56 | 53 | no activity | GI50 [17]: 10 nM
2 | C/C=C1\NC(=O)c2cc(SC)cc(n2)CNC(=O)C[C@@H](/C=C/CCSC(=O)CCCC)OC(=O)[C@H](C(C)C)NC1=O [Compound 157] | – | 26 | – | – | – | – | 36 | 83 | 36 | 35 | – | 37 | – | 23 | – | – | 72 | 29 | 23 | no activity | GI50 ([1]; U937 cells): 20 nM; GI50 ([3]; DU145 cells): 70 nM; GI50 ([4]; MCF-7 cells): 20 nM; GI50 ([5]; MOLT-4 cells): 20 nM; GI50 ([6]; lncap cells): 50 nM; GI50 ([11]; HT1080 cells): 90 nM; GI50 ([13]; PANC-1 cells): 20 nM; GI50 ([15]; Hela cells): 70 nM; GI50 ([16]; A549 cells): 20 nM; GI50 ([17]; BGC-823 cells): 30 nM
3 | C/C=C1\NC(=O)c2cc(SC)cc(n2)CNC(=O)C[C@@H](/C=C/CCSC(C)=O)OC(=O)[C@@H](C)NC1=O [Compound 221] | – | 43 | – | – | – | – | 36 | 57 | 65 | 35 | – | 41 | – | 74 | – | – | 26 | 41 | 41 | no activity | GI50 ([1]; U937 cells): 70 nM; GI50 ([3]; DU145 cells): 50 nM; GI50 ([4]; MCF-7 cells): 80 nM; GI50 ([5]; MOLT-4 cells): 70 nM; GI50 ([6]; lncap cells): 20 nM; GI50 ([11]; HT1080 cells): 80 nM; GI50 ([13]; PANC-1 cells): 50 nM; GI50 ([15]; Hela cells): 30 nM; GI50 ([16]; A549 cells): 20 nM; GI50 ([17]; BGC-823 cells): 50 nM
4 | C=C1NC(=O)c2ccc(F)c(n2)CNC(=O)C[C@@H](/C=C/CCS)OC(=O)[C@H](C)NC1=O [Compound 142] | 50 | 51 | 50 | 50 | 20 | 110 | 73 | 73 | 42 | 59 | 70 | 66 | 130 | 84 | 50 | 130 | 53 | 38 | 35 | no activity | GI50 [17]: 70 nM
5 | C/C=C1\NC(=O)c2ncc(F)c(n2)CNC(=O)C[C@@H](/C=C/CCSC(C)=O)OC(=O)[C@H](C(C)C)NC1=O [Compound 97] | 30 | 31 | 10 | 30 | 20 | 20 | 93 | 59 | 31 | 42 | 70 | 39 | 70 | 29 | 90 | 50 | 24 | 13 | 26 | no activity | GI50 [17]: 30 nM
6 | C/C=C1\NC(=O)c2cc(F)cc(n2)CNC(=O)C[C@@H](/C=C/CCSC(=O)CCCCCCC)OC(=O)[C@H](C(C)C)NC1=O [Example 31] | 40 | 19 | 20 | 60 | 10 | 10 | 92 | 57 | 52 | 42 | 50 | 57 | 50 | 27 | 90 | 70 | 77 | 19 | 63 | no activity | GI50 [17]: 50 nM
